Laboratory results reported in PubChem BioAssay AID1963439 (Molecular Pharmacology Branch, DTP, NCI, 2024).

Tested on: NCI-H196 complex spheroids with HUVEC/MSC, growth % T/C
Experiment: Anticancer human tumor NCI-H196 cell line growth inhibition [Asc];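 also: spheroids exposed to compound for 7 days before measurement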;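 as to viability, T/C: 100% = DMSO vehicle control wells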
Conditions: for IC50: curve of first compound; for viability, T/C: stronger effect = lower value
Procedure: Multicellular complex tumor spheroid response to apoptosis pathway targeting inhibitors Alrizomadlin, Pelcitoclax, and Dasminapant in combination with a variety of drugs and investigational agents in selected tumor cell lines
The MDM2 inhibitor alrizomadlin, the Bcl-2/Bcl-xL inhibitor pelcitoclax, and the IAPs inhibitor dasminapant were evaluated both individually and in combination with standard of care and investigational anticancer small molecules within a complex spheroid model of solid tumors. . Complex spheroids include a stromal component modeled by human endothelial cells (HUVEC) and fibroblasts modeled by human mesenchymal stem cells (MSCs). The concentration ranges selected for each drug and investigational agent were based upon clinically achievable concentrations if the clinical Cmax of the agent was known.
Compounds. The drugs and investigational agents: alrizomadlin (APG-115; NSC831270), pelcitoclax (APG-1252; NSC835773), dasminapant (APG-1387;NSC834197), TAK-243 (NSC785004), copanlisib (NSC809693), olaparib (NSC753686), talazoparib (NSC767125), cobimetinib (NSC 768068), eltanexor (KPT-8602, NSC 794443), abemaciclib (NSC 768073), sotorasib (NSC818433), adagrasib (NSC 831453), MRTX-1133 (NSC 836407), Iadademestat (ORY1001, NSC 806812), and RMC-4630 (NSC839698), were obtained from the NCI Developmental Therapeutics Program Chemical Repository. The FDA-approved anticancer drug set is available from the Developmental Therapeutics Program at https://dtp.cancer.gov/organization/dscb/obtaining/available plates.htm. […] The stock solutions were prepared in dimethyl sulfoxide (DMSO, Sigma-Aldrich, St. Louis, MO, cat. D2650) at 800-fold the tested concentration and stored at -70 degrees C prior to their use. All drugs and investigational agents were tested over a range starting from a high concentration at or near the clinical Cmax and decreasing in half-log increments. If the clinical Cmax for an agent had not been determined, the highest concentration tested was 10 microM.
The patient-derived cancer (PDC) cell lines include five colon adenocarcinomas: 186277-243-T-J2-PDC, 616215-338-R-J1-PDC, 439559-082-T-J2-PDC, 463943-066-T-J2-PDC, and 519858-162-T-J1-PDC; three pancreatic carcinomas: 323965-272-R-J2-PDC, 521955-158-R6-J3-PDC, and 521955-158-R2-J5-PDC; two uterine sarcomas: 327498-152-R-J2-PDC and 993429-296-R-J1-PDC; two rhabdomyosarcomas: 755483-174-R-J1-PDC and 772245-204-R-J1-PDC; two soft tissue sarcomas: 126254-015-R-J1-PDC and 494315-158-R-J1-PDC; two malignant fibrous histiocytomas: 317291-083-R-J1-PDC and 596521-263-R-J1-PDC; two breast carcinomas: 171881-019-R-J1-PDC and 885512-296-R-J2-PDC; and one ovarian carcinoma: 6556581-035-R-J-PDC were obtained from the NCI PDMR, (https://pdmr.cancer.gov). The established cell lines HSSY-2 synovial sarcoma (RRID:CVCL 8719), SYO-1 synovial sarcoma (RRID:CVCL_7146), MPNST malignant peripheral neural sheath tumor were obtained from the Sloan Kettering Institute. The following established cell lines were purchased from the American Type Culture Collection (ATCC, Manassas, VA), Sor the received from the NCI repository:, PANC-1 pancreatic carcinoma (CRL-1469, RRID:CVCL_0480), OVCAR-5 ovarian carcinoma (RRID:CVCL_1628), OVCAR-8 ovarian carcinoma (RRID:CVCL_1629), , MCF-7 breast carcinoma (CRL-12584, RRID:CVCL_0031), MDA-MB-231 breast carcinoma (CRL-12532, RRID:CVCL_0062), NCI-H1876 small cell lung carcinoma (CRL-5902, RRID:CVCL_1503), NCI-H510A small cell lung carcinoma (HTB-184, RRID:CVCL_1565), NCI-H1417 (CRL-5869, RRID:CVCL_1469), and NCI-H196 small cell lung carcinoma (CRL-5823, RRID:CVCL_1509). Dr. Peter Houghton (Greehey Children's Cancer Research Institute, University of Texas Health Science Center, San Antonio, TX) provided Rh-18 rhabdomyosarcoma (RRID:CVCL_1659). Pooled donor human umbilical vein endothelial cells (HUVEC, Lonza, cat. CC-2519) and human mesenchymal stem cells (hMSC, Lonza, cat. PT-2501) were purchased from Lonza (Walkersville, MD).
Cell Culture. […]

[1] = second compound 0.03 µM, first compound 0.00316 µM
[2] = second compound 0.03 µM, first compound 0.01 µM
[3] = second compound 0.03 µM, first compound 0.0316 µM
[4] = second compound 0.03 µM, first compound 0.1 µM
[5] = second compound 0.03 µM, first compound 0.316 µM
[6] = second compound 0.03 µM, first compound 1 µM
[7] = second compound 0.0949 µM, first compound 0.00316 µM
[8] = second compound 0.0949 µM, first compound 0.01 µM
[9] = second compound 0.0949 µM, first compound 0.0316 µM
[10] = second compound 0.0949 µM, first compound 0.1 µM
[11] = second compound 0.0949 µM, first compound 0.316 µM
[12] = second compound 0.0949 µM, first compound 1 µM
[13] = second compound 0.3 µM, first compound 0.00316 µM
[14] = second compound 0.3 µM, first compound 0.01 µM
[15] = second compound 0.3 µM, first compound 0.0316 µM
[16] = second compound 0.3 µM, first compound 0.1 µM
[17] = second compound 0.3 µM, first compound 0.316 µM
[18] = second compound 0.3 µM, first compound 1 µM
[19] = second compound 0.949 µM, first compound 0.00316 µM
[20] = second compound 0.949 µM, first compound 0.01 µM
[21] = second compound 0.949 µM, first compound 0.0316 µM
[22] = second compound 0.949 µM, first compound 0.1 µM
[23] = second compound 0.949 µM, first compound 0.316 µM
[24] = second compound 0.949 µM, first compound 1 µM
[25] = second compound 3 µM, first compound 0.00316 µM
[26] = second compound 3 µM, first compound 0.01 µM
[27] = second compound 3 µM, first compound 0.0316 µM
[28] = second compound 3 µM, first compound 0.1 µM
[29] = second compound 3 µM, first compound 0.316 µM
[30] = second compound 3 µM, first compound 1 µM

Which IC50 (second compound 0.03 µM) does the source give for CCN1CCN(Cc2ccc(Nc3ncc(F)c(-c4cc(F)c5nc(C)n(C(C)C)c5c4)n3)nc2)CC1 + CCN1C(C(=O)NC23CCC(C(=O)O)(CC2)CC3)C(c2cccc(Cl)c2F)C2(C(=O)Nc3cc(Cl)ccc32)C12CCCCC2 here?
The IC50 was greater than 1000 nM.

What about the IC50 (second compound 0.0949 µM) of the same compound?
The IC50 was greater than 1000 nM.

What about the IC50 (second compound 0.3 µM) of the same compound?
Its IC50 is greater than 1000 nM.

And the IC50 (second compound 0.949 µM)?
The IC50 was greater than 1000 nM.

What about the IC50 (second compound 3 µM) of the same compound?
The IC50 was greater than 1000 nM.

What about the viability, T/C [1] of the same compound?
Its viability, T/C is 99.9%.

And the viability, T/C [2]?
The viability, T/C was 99.8%.

What about the viability, T/C [3] of the same compound?
The viability, T/C was 96.1%.

What about the viability, T/C [4] of the same compound?
The viability, T/C was 99.8%.

And the viability, T/C [5]?
The viability, T/C was 116%.

And the viability, T/C [6]?
The viability, T/C was 124%.

What about the viability, T/C [7] of the same compound?
Its viability, T/C is 113%.

And the viability, T/C [8]?
The viability, T/C was 112%.

What about the viability, T/C [9] of the same compound?
Its viability, T/C is 99.4%.

What about the viability, T/C [10] of the same compound?
Its viability, T/C is 106%.

And the viability, T/C [11]?
Its viability, T/C is 115%.

And the viability, T/C [12]?
The viability, T/C was 131%.

And the viability, T/C [13]?
The viability, T/C was 107%.

And the viability, T/C [14]?
The viability, T/C was 128%.

And the viability, T/C [15]?
Its viability, T/C is 117%.

And the viability, T/C [16]?
Its viability, T/C is 114%.

What about the viability, T/C [17] of the same compound?
The viability, T/C was 117%.

And the viability, T/C [18]?
The viability, T/C was 140%.

What about the viability, T/C [19] of the same compound?
The viability, T/C was 127%.

And the viability, T/C [20]?
Its viability, T/C is 111%.

What about the viability, T/C [21] of the same compound?
Its viability, T/C is 123%.

And the viability, T/C [22]?
The viability, T/C was 113%.

What about the viability, T/C [23] of the same compound?
Its viability, T/C is 120%.

What about the viability, T/C [24] of the same compound?
Its viability, T/C is 142%.

What about the viability, T/C [25] of the same compound?
Its viability, T/C is 129%.

And the viability, T/C [26]?
Its viability, T/C is 123%.

And the viability, T/C [27]?
The viability, T/C was 114%.

What about the viability, T/C [28] of the same compound?
The viability, T/C was 109%.

What about the viability, T/C [29] of the same compound?
Its viability, T/C is 119%.

And the viability, T/C [30]?
Its viability, T/C is 139%.

What does the source list for O=C(c1ccc(F)c(F)c1Nc1ccc(I)cc1F)N1CC(O)([C@@H]2CCCCN2)C1 + CCN1C(C(=O)NC23CCC(C(=O)O)(CC2)CC3)C(c2cccc(Cl)c2F)C2(C(=O)Nc3cc(Cl)ccc32)C12CCCCC2?
IC50 (second compound 0.03 µM): > 1000 nM; IC50 (second compound 0.0949 µM): > 1000 nM; IC50 (second compound 0.3 µM): > 1000 nM; IC50 (second compound 0.949 µM): > 1000 nM; IC50 (second compound 3 µM): > 1000 nM; viability, T/C [1]: 107%; viability, T/C [2]: 110%; viability, T/C [3]: 101%; viability, T/C [4]: 111%; viability, T/C [5]: 123%; viability, T/C [6]: 157%; viability, T/C [7]: 105%; viability, T/C [8]: 121%; viability, T/C [9]: 108%; viability, T/C [10]: 112%; viability, T/C [11]: 127%; viability, T/C [12]: 131%; viability, T/C [13]: 104%; viability, T/C [14]: 114%; viability, T/C [15]: 123%; viability, T/C [16]: 115%; viability, T/C [17]: 125%; viability, T/C [18]: 122%; viability, T/C [19]: 115%; viability, T/C [20]: 120%; viability, T/C [21]: 125%; viability, T/C [22]: 120%; viability, T/C [23]: 145%; viability, T/C [24]: 144%; viability, T/C [25]: 124%; viability, T/C [26]: 123%; viability, T/C [27]: 126%; viability, T/C [28]: 121%; viability, T/C [29]: 136%; viability, T/C [30]: 154%
